{"source": "patent US7598253B2", "about": "“Reverse-turn mimetics and methods relating thereto” (Myriad Genetics, Inc., priority 1995, dated 2009)", "key": {"male ICR mice": {"system": "male ICR mice", "experiment": "In vivo mouse tail flick assay (radiant heat)", "settings": "for % Prolong.: 1 minute post-treatment vs 0 time; for tail flick response time, 1 Min. (single animal) / tail flick response time, 1 Min. (Avg.): 1 minute post-treatment; for tail flick response time, 1 Min. (single animal): cut-off 15 seconds; for tail flick response time, 1 Min. (Avg.) / tail flick response time, 0 Time (Avg.): group mean; for tail flick response time, 0 Time (Avg.) / tail flick response time, 0 Time (single animal): pre-treatment"}, "δ opiate receptor": {"target": "δ opiate receptor (Cavia porcellus, UniProt A0A286XTF2)", "sequence (A0A286XTF2 1-366)": "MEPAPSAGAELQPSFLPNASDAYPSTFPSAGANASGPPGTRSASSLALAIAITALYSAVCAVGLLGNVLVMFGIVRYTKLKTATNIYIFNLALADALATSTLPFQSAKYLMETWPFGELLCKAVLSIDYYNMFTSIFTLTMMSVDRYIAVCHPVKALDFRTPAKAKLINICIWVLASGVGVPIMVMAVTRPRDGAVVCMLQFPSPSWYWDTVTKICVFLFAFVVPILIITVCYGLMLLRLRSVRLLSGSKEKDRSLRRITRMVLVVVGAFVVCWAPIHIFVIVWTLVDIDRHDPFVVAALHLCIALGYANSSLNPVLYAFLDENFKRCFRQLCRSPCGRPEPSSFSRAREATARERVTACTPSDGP", "experiment": "Opiate (δ) binding, [3H]DPDPE competitive radioligand binding", "design": "species or system guinea pig"}, "μ opiate receptor": {"target": "μ opiate receptor (Cavia porcellus, UniProt A0ACM8Q262)", "sequence (A0ACM8Q262 1-400)": "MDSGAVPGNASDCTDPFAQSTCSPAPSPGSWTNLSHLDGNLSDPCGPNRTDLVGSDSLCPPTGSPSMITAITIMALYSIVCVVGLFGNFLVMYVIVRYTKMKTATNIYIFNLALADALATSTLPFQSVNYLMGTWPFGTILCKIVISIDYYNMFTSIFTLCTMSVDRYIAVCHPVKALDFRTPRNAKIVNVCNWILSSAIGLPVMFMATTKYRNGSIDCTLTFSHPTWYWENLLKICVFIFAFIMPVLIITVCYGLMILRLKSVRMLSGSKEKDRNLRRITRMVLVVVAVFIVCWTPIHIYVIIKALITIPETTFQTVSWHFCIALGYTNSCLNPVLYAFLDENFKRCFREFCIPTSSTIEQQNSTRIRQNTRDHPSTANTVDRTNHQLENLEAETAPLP", "experiment": "biochemical", "assay_type": "binding, guinea pig"}, "[1]": {"target": "opioid receptor (non-selective)", "experiment": "Opiate (non-selective) binding, [3H]naloxone", "settings": "[3H]naloxone (1 nM), rat cerebral cortex membranes"}, "[2]": {"settings": "10 μg/5 μl ICV, listed as Test Compound"}, "[3]": {"settings": "30 μg/5 μl ICV, listed as Test Compound"}, "[4]": {"settings": "read-out: inhibition of radioligand binding"}, "[5]": {"settings": "reference compounds, [3H]DPDPE bound (2 nM)"}}, "note": "Several values for one entry are separate records, joined by “and”; a condition that tells them apart may be missing. Identical values can stand only once. Like-named read-outs stand apart in the source and are kept apart here.", "data": [{"compound": "O=C1CN2C(=O)CCN(CCc3ccc(O)cc3)C2CN1CCc1ccccc1", "note": "(centres unmarked) [Compound 5]", "values": [{"measurement": "% Prolong.", "setting": "male ICR mice; 10 μg/5 μl ICV", "result": 6, "unit": "%"}, {"measurement": "tail flick response time, 1 Min. (single animal)", "setting": "male ICR mice; [2]", "result": "7.5 seconds (2×) and 6.7 seconds and 6.8 seconds"}, {"measurement": "tail flick response time, 1 Min. (Avg.)", "setting": "male ICR mice; 10 μg/5 μl ICV", "result": "Avg. 7.1 seconds"}, {"measurement": "tail flick response time, 0 Time (Avg.)", "setting": "male ICR mice; 10 μg/5 μl ICV", "result": "Avg. = 6.7 seconds"}, {"measurement": "tail flick response time, 0 Time (single animal)", "setting": "male ICR mice; [2]", "result": "6.5 s and 7.2 s and 6.9 s and 6.2 s"}, {"measurement": "% Prolong.", "setting": "male ICR mice; 30 μg/5 μl ICV", "result": 63, "unit": "%"}, {"measurement": "tail flick response time, 1 Min. (single animal)", "setting": "male ICR mice; [3]", "result": ">15 seconds (2×) and 7.2 seconds and 6.3 seconds"}, {"measurement": "tail flick response time, 1 Min. (Avg.)", "setting": "male ICR mice; 30 μg/5 μl ICV", "result": "Avg. > 15 seconds"}, {"measurement": "tail flick response time, 0 Time (Avg.)", "setting": "male ICR mice; 30 μg/5 μl ICV", "result": "Avg. = 6.7 seconds"}, {"measurement": "tail flick response time, 0 Time (single animal)", "setting": "male ICR mice; [3]", "result": "6.5 s and 6.7 s and 7.2 s and 6.3 s"}, {"measurement": "% Prolong.", "setting": "male ICR mice; 100 μg/5 μl ICV", "result": 100, "unit": "%"}, {"measurement": "tail flick response time, 1 Min. (single animal)", "setting": "male ICR mice; 100 μg/5 μl ICV", "result": ">15", "unit": "s"}, {"measurement": "tail flick response time, 1 Min. (Avg.)", "setting": "male ICR mice; 100 μg/5 μl ICV", "result": "Avg. > 15 seconds"}, {"measurement": "tail flick response time, 0 Time (Avg.)", "setting": "male ICR mice; 100 μg/5 μl ICV", "result": "Avg. = 6.5 seconds"}, {"measurement": "tail flick response time, 0 Time (single animal)", "setting": "male ICR mice; 100 μg/5 μl ICV, listed as Test Compound", "result": "6.5 seconds (2×) and 6.3 seconds and 6.8 seconds"}, {"measurement": "analgesic potency relative to morphine", "setting": "male ICR mice; ICV, tail flick", "result": "10%-15%"}, {"measurement": "IC50", "setting": "δ opiate receptor; read-out: IC50", "result": "6900 ± 1200", "unit": "nM"}, {"measurement": "Ki", "setting": "δ opiate receptor; read-out: Ki", "result": "1700 ± 300", "unit": "nM"}, {"measurement": "inhibition at 10 µM", "setting": "δ opiate receptor; [4]", "result": 60, "unit": "%"}, {"measurement": "IC50", "setting": "μ opiate receptor", "result": "5400 ± 700", "unit": "nM"}, {"measurement": "Ki", "setting": "μ opiate receptor", "result": "640 ± 80", "unit": "nM"}, {"measurement": "inhibition at 10 µM", "setting": "μ opiate receptor; [4]", "result": 64, "unit": "%"}]}, {"compound": "CCCCCN1C[C@@H]2N(C(=O)OCCc3ccc(O)cc3)CCC(=O)N2[C@@H](CCc2ccccc2)C1=O", "note": "[Compound 30]", "values": [{"measurement": "IC50", "setting": "[1]", "result": 27, "unit": "nM"}]}, {"compound": "C[C@@H](NC(=O)[C@@H](N)Cc1ccc(O)cc1)C(=O)NCC(=O)N(C)[C@@H](Cc1ccccc1)C(=O)NCCO", "note": "[DAMGO, (D-Ala^2, N-methyl-phe^4, gly-ol^5)-enkephalin]", "values": [{"measurement": "IC50", "setting": "δ opiate receptor", "result": 4800, "unit": "nM"}, {"measurement": "Ki", "setting": "δ opiate receptor", "result": 1200, "unit": "nM"}, {"measurement": "Hill Coefficient", "setting": "δ opiate receptor; [5]", "result": 1.08}, {"measurement": "Hill Coefficient", "setting": "μ opiate receptor", "result": 0.92}, {"measurement": "IC50", "setting": "μ opiate receptor", "result": 6.5, "unit": "nM"}, {"measurement": "Ki", "setting": "μ opiate receptor", "result": 0.59, "unit": "nM"}]}, {"compound": "CN1CC[C@]23c4c5ccc(O)c4O[C@H]2[C@@H](O)C=C[C@H]3[C@H]1C5", "note": "[Morphine, reference compound]", "values": [{"measurement": "% Prolong.", "setting": "male ICR mice; 10 μg/5 μl ICV", "result": 100, "unit": "%"}, {"measurement": "tail flick response time, 1 Min. (single animal)", "setting": "male ICR mice; 10 μg/5 μl ICV", "result": ">15", "unit": "s"}, {"measurement": "tail flick response time, 1 Min. (Avg.)", "setting": "male ICR mice; 10 μg/5 μl ICV", "result": "Avg. > 15 seconds"}, {"measurement": "tail flick response time, 0 Time (single animal)", "setting": "male ICR mice; 10 μg/5 μl ICV", "result": "7.5 s and 6.3 s and 7.2 s and 6.8 s"}, {"measurement": "tail flick response time, 0 Time (Avg.)", "setting": "male ICR mice; 10 μg/5 μl ICV", "result": "Avg. = 7.0 seconds"}]}, {"compound": "Oc1ccc2c3c1O[C@H]1c4[nH]c5ccccc5c4C[C@@]4(O)[C@@H](C2)N(CC2CC2)CC[C@]314", "note": "[Naltrindole]", "values": [{"measurement": "Hill Coefficient", "setting": "δ opiate receptor; [5]", "result": 0.53}, {"measurement": "Hill Coefficient", "setting": "μ opiate receptor", "result": 0.98}, {"measurement": "IC50", "setting": "μ opiate receptor", "result": 27, "unit": "nM"}, {"measurement": "Ki", "setting": "μ opiate receptor", "result": 2.5, "unit": "nM"}]}, {"compound": "Oc1ccc2c3c1O[C@H]1c4[nH]c5c(c4C[C@@]4(O)[C@@H](C2)N(CC2CC2)CC[C@]314)C[C@@]1(O)[C@H]2Cc3ccc(O)c4c3[C@@]1(CCN2CC1CC1)[C@H]5O4", "note": "[Norbinaltorphimine]", "values": [{"measurement": "Hill Coefficient", "setting": "μ opiate receptor", "result": 1.13}, {"measurement": "IC50", "setting": "μ opiate receptor", "result": 280, "unit": "nM"}, {"measurement": "Ki", "setting": "μ opiate receptor", "result": 26, "unit": "nM"}]}, {"compound": "C[C@@H](NC(=O)[C@@H](N)Cc1ccc(O)cc1)C(=O)NCC(=O)N(C)[C@@H](Cc1ccccc1)C(=O)NCCO", "note": "[[^3H]DAMGO]", "values": [{"measurement": "Kd", "setting": "μ opiate receptor; read-out: Kd of radioligand", "result": 0.27, "unit": "nM"}]}, {"compound": "(D-pen^3, D-pen^5) enkephalin [DPDPE]", "values": [{"measurement": "Hill Coefficient", "setting": "δ opiate receptor", "result": 0.86}, {"measurement": "Hill Coefficient", "setting": "μ opiate receptor", "result": 1.32}]}]}
